Assay results from patent US6737383B1, “Herbicidal oxadiazolidines” (priority 1999, dated 2004).

How the values were obtained:
pigweed = test: Test B pre/postemergence pigweed; type: in vivo, Amaranthus retroflexus; settings: for Plant response rating, Redroot pigweed: scale of 0 to 10 where 0 is no effect and 10 is complete control
Procedure, shortened: (§1)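 Test chemicals in a non-phytotoxic solvent mixture with surfactant were sprayed preemergence onto planted seeds and postemergence onto plants 2 to 18 cm tall (1- to 4-leaf stage). After twelve to sixteen days in a greenhouse, injury was visually rated against untreated controls from 0 (no effect) to 10 (complete control).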

sugar beet = test: Test B pre/postemergence sugar beet; type: in vivo, Beta vulgaris; settings: for Plant response rating, Sugarbeets: scale of 0 to 10 where 0 is no effect and 10 is complete control
Procedure, shortened: as §1

bedstraw = test: Test B pre/postemergence bedstraw; type: in vivo, Galium aparine; settings: Preemergence, Rate 250 g/ha; scale 0 to 10, 0 is no effect, 10 is complete control
Procedure, shortened: as §1

surinam grass = test: Test B pre/postemergence surinam grass; type: in vivo, Brachiaria decumbens
Procedure, shortened: as §1

giant foxtail = test: Test B pre/postemergence giant foxtail; type: in vivo, Setaria faberii
Procedure, shortened: as §1

rape = test: Test B pre/postemergence rape; type: in vivo, Brassica napus; settings: for Plant response rating, Rape: scale of 0 to 10 where 0 is no effect and 10 is complete control
Procedure, shortened: as §1

velvetleaf = test: Test B pre/postemergence velvetleaf; type: in vivo, Abutilon theophrasti; settings: for Plant response rating, Velvetleaf: scale of 0 to 10 where 0 is no effect and 10 is complete control
Procedure, shortened: as §1

blackgrass = test: Test B pre/postemergence blackgrass; type: in vivo, Alopecurus myosuroides
Procedure, shortened: as §1

cocklebur = test: Test B pre/postemergence cocklebur; type: in vivo, Xanthium strumarium
Procedure, shortened: as §1

wild oat = test: Test B pre/postemergence wild oat; type: in vivo, Avena fatua; settings: for Plant response rating, Wild oats: scale of 0 to 10 where 0 is no effect and 10 is complete control
Procedure, shortened: as §1

morningglory = test: Test B pre/postemergence morningglory; type: in vivo, Ipomoea hederacea; settings: for Plant response rating, Morningglory: scale of 0 to 10 where 0 is no effect and 10 is complete control
Procedure, shortened: as §1

wheat = test: Test B pre/postemergence wheat; type: in vivo, Triticum aestivum; settings: for Plant response rating, Wheat: scale of 0 to 10 where 0 is no effect and 10 is complete control
Procedure, shortened: as §1

soybean = test: Test B pre/postemergence soybean; type: in vivo, Glycine max; settings: for Plant response rating, Soybean: scale of 0 to 10 where 0 is no effect and 10 is complete control
Procedure, shortened: as §1

corn = test: Test B pre/postemergence corn; type: in vivo, Zea mays
Procedure, shortened: as §1

smallflower flatsedge = test: Test B flood test smallflower flatsedge; type: in vivo, Cyperus difformis
Procedure, shortened: (§2)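 Each value is a visual injury score relative to controls, with 10 meaning complete control and 0 no effect. Evaluation took place twelve to sixteen days after the 2-leaf-stage plants were treated and kept in the greenhouse.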

rice = test: Test B flood test rice; type: in vivo, Oryza sativa
Procedure, shortened: as §2

[1] = Postemergence, Rate 250 g/ha, scale 0 to 10
[2] = Preemergence, Rate 250 g/ha, scale 0 to 10, 0 is no effect, 10 is complete control
[3] = Preemergence, Rate 500 g/ha, scale 0 to 10, 0 is no effect, 10 is complete control
[4] = Rate 62 g/ha, Postemergence, scale 0 to 10 (0 no effect, 10 complete control)
[5] = Rate 125 g/ha, Postemergence, scale 0 to 10, 0 is no effect, 10 is complete control
[6] = Postemergence, Rate 500 g/ha, scale of 0 to 10 where 0 is no effect and 10 is complete control
[7] = Preemergence, Rate 62 g/ha, scale of 0 to 10 where 0 is no effect and 10 is complete control
[8] = Preemergence, Rate 125 g/ha, scale of 0 to 10 where 0 is no effect and 10 is complete control
[9] = Rate 62 g/ha, flood test species, Pre-emergence, visual evaluation after twelve to sixteen days
[10] = Rate 125 g/ha, under heading Pre-emergence, flood test species, visual evaluation after twelve to sixteen days
[11] = Rate 250 g/ha, Pre-emergence (flood test species), scale 0 to 10, 0 is no effect, 10 is complete control
[12] = Rate 500 g/ha, Pre-emergence, flood test species, scale 0 to 10 (0 no effect, 10 complete control)

Q: Which “Redroot pigweed plant response rating” value (pigweed; [1]) does the source give for `CC(C)N(C(=O)n1oc(=O)n(CCC[Si](C)(C)C)c1=O)c1ccc(F)cc1` [Compound 461] here?
A: 0

Q: And the “Plant response rating, Redroot pigweed” value (pigweed; Preemergence, Rate 62 g/ha)?
A: 0

Q: And the “Plant response rating, Redroot pigweed” value (pigweed; Preemergence, Rate 125 g/ha)?
A: 0

Q: What about the “Redroot pigweed plant response rating” value (pigweed; [2]) of the same compound?
A: 0

Q: And the “Redroot pigweed plant response rating” value (pigweed; [3])?
A: 0

Q: And the “Redroot pigweed plant response rating” value (pigweed; [4])?
A: 0

Q: And the “Redroot pigweed plant response rating” value (pigweed; [5])?
A: 0

Q: What about the “Sugarbeets plant response rating” value (sugar beet; [1]) of the same compound?
A: 0

Q: And the “Plant response rating, Sugarbeets” value (sugar beet; Preemergence, Rate 62 g/ha)?
A: 0

Q: And the “Plant response rating, Sugarbeets” value (sugar beet; Preemergence, Rate 125 g/ha)?
A: 0

Q: What about the “Sugarbeets plant response rating” value (sugar beet; [2]) of the same compound?
A: 0

Q: What about the “Sugarbeets plant response rating” value (sugar beet; [3]) of the same compound?
A: 0

Q: What about the “Sugarbeets plant response rating” value (sugar beet; [4]) of the same compound?
A: 0

Q: And the “Sugarbeets plant response rating” value (sugar beet; [5])?
A: 0

Q: What about the “Bedstraw plant response rating” value (bedstraw) of the same compound?
A: 0

Q: What about the “B. signalgrass plant response rating” value (surinam grass; Postemergence, Rate 250 g/ha, scale 0 to 10, 0 no effect, 10 complete control) of the same compound?
A: 0

Q: What about the “B. signalgrass plant response rating” value (surinam grass; [6]) of the same compound?
A: 0

Q: What about the “Plant response rating, B. signalgrass” value (surinam grass; [7]) of the same compound?
A: 0

Q: And the “Plant response rating, B. signalgrass” value (surinam grass; [8])?
A: 0

Q: What about the “B. signalgrass plant response rating” value (surinam grass; [2]) of the same compound?
A: 0

Q: And the “B. signalgrass plant response rating” value (surinam grass; [3])?
A: 0

Q: And the “B. signalgrass plant response rating” value (surinam grass; [4])?
A: 0

Q: What about the “B. signalgrass plant response rating” value (surinam grass; [5]) of the same compound?
A: 0

Q: And the “Giant foxtail plant response rating” value (giant foxtail; [1])?
A: 0

Q: What about the “Giant foxtail plant response rating” value (giant foxtail; [6]) of the same compound?
A: 0

Q: What about the “Plant response rating, Giant foxtail” value (giant foxtail; [7]) of the same compound?
A: 0

Q: What about the “Plant response rating, Giant foxtail” value (giant foxtail; [8]) of the same compound?
A: 0

Q: What about the “Giant foxtail plant response rating” value (giant foxtail; [2]) of the same compound?
A: 0

Q: What about the “Giant foxtail plant response rating” value (giant foxtail; [3]) of the same compound?
A: 3

Q: And the “Giant foxtail plant response rating” value (giant foxtail; [4])?
A: 0

Q: And the “Giant foxtail plant response rating” value (giant foxtail; [5])?
A: 0

Q: And the “Rape plant response rating” value (rape; [1])?
A: 0

Q: And the “Plant response rating, Rape” value (rape; Preemergence, Rate 62 g/ha)?
A: 0

Q: What about the “Plant response rating, Rape” value (rape; Preemergence, Rate 125 g/ha) of the same compound?
A: 0

Q: And the “Rape plant response rating” value (rape; [2])?
A: 0

Q: What about the “Rape plant response rating” value (rape; [3]) of the same compound?
A: 0

Q: What about the “Rape plant response rating” value (rape; [4]) of the same compound?
A: 0

Q: What about the “Rape plant response rating” value (rape; [5]) of the same compound?
A: 0

Q: And the “Velvetleaf plant response rating” value (velvetleaf; [1])?
A: 0

Q: What about the “Plant response rating, Velvetleaf” value (velvetleaf; Preemergence, Rate 62 g/ha) of the same compound?
A: 0

Q: And the “Plant response rating, Velvetleaf” value (velvetleaf; Preemergence, Rate 125 g/ha)?
A: 0

Q: What about the “Velvetleaf plant response rating” value (velvetleaf; [2]) of the same compound?
A: 0

Q: And the “Velvetleaf plant response rating” value (velvetleaf; [3])?
A: 0

Q: And the “Velvetleaf plant response rating” value (velvetleaf; [4])?
A: 0

Q: And the “Velvetleaf plant response rating” value (velvetleaf; [5])?
A: 0

Q: What about the “Blackgrass plant response rating” value (blackgrass; [1]) of the same compound?
A: 0

Q: And the “Blackgrass plant response rating” value (blackgrass; [6])?
A: 3

Q: And the “Plant response rating, Blackgrass” value (blackgrass; [7])?
A: 0

Q: What about the “Plant response rating, Blackgrass” value (blackgrass; [8]) of the same compound?
A: 0

Q: And the “Blackgrass plant response rating” value (blackgrass; [2])?
A: 0

Q: What about the “Blackgrass plant response rating” value (blackgrass; [3]) of the same compound?
A: 0

Q: And the “Blackgrass plant response rating” value (blackgrass; [4])?
A: 0

Q: And the “Blackgrass plant response rating” value (blackgrass; [5])?
A: 0

Q: What about the “Cocklebur plant response rating” value (cocklebur; [1]) of the same compound?
A: 0

Q: What about the “Cocklebur plant response rating” value (cocklebur; [6]) of the same compound?
A: 3

Q: What about the “Plant response rating, Cocklebur” value (cocklebur; [7]) of the same compound?
A: 0

Q: What about the “Plant response rating, Cocklebur” value (cocklebur; [8]) of the same compound?
A: 0

Q: And the “Cocklebur plant response rating” value (cocklebur; [2])?
A: 0

Q: And the “Cocklebur plant response rating” value (cocklebur; [3])?
A: 0

Q: What about the “Cocklebur plant response rating” value (cocklebur; [4]) of the same compound?
A: 0

Q: And the “Cocklebur plant response rating” value (cocklebur; [5])?
A: 0

Q: And the “Wild oats plant response rating” value (wild oat; [1])?
A: 0

Q: And the “Plant response rating, Wild oats” value (wild oat; Preemergence, Rate 62 g/ha)?
A: 0

Q: And the “Plant response rating, Wild oats” value (wild oat; Preemergence, Rate 125 g/ha)?
A: 0

Q: What about the “Wild oats plant response rating” value (wild oat; [2]) of the same compound?
A: 0

Q: What about the “Wild oats plant response rating” value (wild oat; [3]) of the same compound?
A: 0

Q: And the “Wild oats plant response rating” value (wild oat; [4])?
A: 0

Q: And the “Wild oats plant response rating” value (wild oat; [5])?
A: 0

Q: And the “Morningglory plant response rating” value (morningglory; [1])?
A: 7

Q: And the “Plant response rating, Morningglory” value (morningglory; Preemergence, Rate 62 g/ha)?
A: 0

Q: What about the “Plant response rating, Morningglory” value (morningglory; Preemergence, Rate 125 g/ha) of the same compound?
A: 0

Q: And the “Morningglory plant response rating” value (morningglory; [2])?
A: 0

Q: What about the “Morningglory plant response rating” value (morningglory; [3]) of the same compound?
A: 0

Q: And the “Morningglory plant response rating” value (morningglory; [4])?
A: 3

Q: What about the “Morningglory plant response rating” value (morningglory; [5]) of the same compound?
A: 7

Q: And the “Wheat plant response rating” value (wheat; [1])?
A: 0

Q: And the “Plant response rating, Wheat” value (wheat; Preemergence, Rate 62 g/ha)?
A: 0

Q: What about the “Plant response rating, Wheat” value (wheat; Preemergence, Rate 125 g/ha) of the same compound?
A: 0

Q: What about the “Wheat plant response rating” value (wheat; [2]) of the same compound?
A: 0

Q: And the “Wheat plant response rating” value (wheat; [3])?
A: 0

Q: What about the “Wheat plant response rating” value (wheat; [4]) of the same compound?
A: 0

Q: And the “Wheat plant response rating” value (wheat; [5])?
A: 0

Q: What about the “Soybean plant response rating” value (soybean; [1]) of the same compound?
A: 3

Q: What about the “Plant response rating, Soybean” value (soybean; Preemergence, Rate 62 g/ha) of the same compound?
A: 0

Q: And the “Plant response rating, Soybean” value (soybean; Preemergence, Rate 125 g/ha)?
A: 0

Q: What about the “Soybean plant response rating” value (soybean; [2]) of the same compound?
A: 0

Q: What about the “Soybean plant response rating” value (soybean; [3]) of the same compound?
A: 0

Q: And the “Soybean plant response rating” value (soybean; [4])?
A: 2

Q: And the “Soybean plant response rating” value (soybean; [5])?
A: 3

Q: What about the “Corn plant response rating” value (corn; [1]) of the same compound?
A: 0

Q: And the “Corn plant response rating” value (corn; [6])?
A: 0

Q: What about the “Plant response rating, Corn” value (corn; [7]) of the same compound?
A: 0

Q: What about the “Plant response rating, Corn” value (corn; [8]) of the same compound?
A: 0

Q: What about the “Corn plant response rating” value (corn; [2]) of the same compound?
A: 0

Q: What about the “Corn plant response rating” value (corn; [3]) of the same compound?
A: 0

Q: And the “Corn plant response rating” value (corn; [4])?
A: 0

Q: What about the “Corn plant response rating” value (corn; [5]) of the same compound?
A: 0

Q: What about the “Plant response rating, S. Flatsedge (0 to 10 scale, 0 is no effect, 10 is complete control)” value (smallflower flatsedge; [9]) of the same compound?
A: 0

Q: What about the “S. Flatsedge plant response rating (0 to 10 scale, 0 is no effect, 10 is complete control)” value (smallflower flatsedge; [10]) of the same compound?
A: 0

Q: And the “S. Flatsedge plant response rating” value (smallflower flatsedge; [11])?
A: 0

Q: What about the “S. Flatsedge plant response rating” value (smallflower flatsedge; [12]) of the same compound?
A: 0

Q: And the “Plant response rating, Rice (0 to 10 scale, 0 is no effect, 10 is complete control)” value (rice; [9])?
A: 0

Q: What about the “Rice plant response rating (0 to 10 scale, 0 is no effect, 10 is complete control)” value (rice; [10]) of the same compound?
A: 0

Q: What about the “Rice plant response rating” value (rice; [11]) of the same compound?
A: 0

Q: What about the “Rice plant response rating” value (rice; [12]) of the same compound?
A: 0
